One assay concerns LaG18/GFP strain. To be noted: 300 nM TD during cell culture; bleached for 90 sec at 525 nm.

Where only a bound is given, the exact number is not on record here.

Description for LaG18/GFP strain: Flow cytometer histograms of LaG18/GFP strain labeled during cell culture with 300 nM TD. Mean values are shown; unbleached (red), bleached for 90 sec at 525 nm (blue), and unlabeled control cells (orange).
Description for NB/TPD complexes: Green numbers are NB-gFAP signal; red numbers are TPD-rFAP signals. In vivo, cells treated with 300 nM TD during 3-day cell culture; in vitro, cells treated with TD after harvest in assay buffer for 4 hours.
The green emitting fluorogen activating protein (gFAP) is genetically fused using GG assembly 3′ to each NB (NB-gFAP) where the gFAP may be ScFvl or AM2-2; the red emitting FAP (rFAP) is fused 3′ to each TPD (TPD-rFAP) where the rFAP is dL5. […] If co-expressed NB and TPD specifically bind one another, the TPD-rFAP will be captured on the surface of the co-expressing cell. However, its residence will be finite as determined by the binding affinity of the NB/TPD complex; most of the TPD-rFAP will be lost into the medium over the 3 day period of cell culture. […] This enables quantitative self-reporting of the presence of the NB/TPD complex as a ratio of red to green fluorescence. FACS will then be used to isolate cells displaying the complex.
The secreted ectodomain TPD-rFAP fusions are initially sequestered within the yeast periplasmic space and/or inner cell wall, and upon buffer treatment released to outer cell surface over the course of a few hours (FIG. 22). […] A second feature of TDs is that they can be successfully applied to cells post-harvest instead of the usual inclusion of TDs in growth medium for 3 days.

For sulfonate TO1-PEG3500-MG, the “loss of rFAP/MG (TPD) signal after bleaching TO1 end of TD” value in the assay with LaG18/GFP strain is “about half of the rFAP/MG signal is lost”. The “binding affinities of NB/TPD complexes efficiently locked/captured on the yeast cell surface” value with NB/TPD complexes is at most 20 µM.

(Values after patent publication US20250052765A1, “Nanobody Discovery Platform and Related Methods” (Carnegie Mellon University, priority 2021, published 2025).)
